Reference: patent publication US20250177481A1, “SCO-spondin-derived polypeptides for enhancing synaptic transmission” (AXOLTIS PHARMA, priority 2021, published 2025)
Values joined by “and” are separate entries in the source; they are usually repeats but may differ in a detail not shown here. Equal values may be shown once. Positions of bridges follow the written chain, without caps; N, C: chain ends. No end group written: not given here.

Tests used:
[1] = test system: thalamocortical synaptic response (ventrobasal thalamic nucleus to somatosensory cortex); test: fEPSP input-output (I/O) recordings in thalamocortical mouse brain slices; type: cell-based, C57Bl6/J mice; conditions: for Normalized fEPSP slope: % of max of vehicle I/O curve, mean of 10 slices
Procedure: Comparison of postsynaptic responses in control versus NX218 peptide conditions were assessed.
Five (C57Bl6/J) male mice 4-5 weeks-old were obtained from Charles River, France and housed in an animal facility. Animal care was compliant with national and local Ethics committee recommendations. Mice were deeply anesthetized by inhalation of isoflurane then decapitated. The dissected brain was quickly placed in ice-cold oxygenated (95% O2/5% CO2) solution containing 214 mM sucrose, 2.5 mM KCl, 1.25 mM NaH2PO4, 26 mM NaHCO3, 2 mM MgSO4, 2 mM CaCl2 and 10 mM D-glucose.
10 Thalamocortical slices (2 slices per mouse) were prepared as described in Agmon and Connors (1991) and Varela et al. (2013). After its recovery, the brain was placed on a support allowing to elevate the caudal part of the brain until dorsal surface forms a 10-degree angle with the horizontal plane. Then, a section at 55 degrees with respect to the midline was performed and the rostral part was removed. In the slicing chamber, the brain was glued on the sectioned face. Then, the brain was sliced with a thickness of 400 μm. Slices were immediately transferred to a holding chamber filled with an artificial cerebrospinal fluid (aCSF) composed by 124 mM NaCl, 2.5 mM KCl, 1.25 mM NaH2PO4, 26 mM NaHCO3, 2 mM MgSO4, 2 mM CaCl2 and 10 mM D-glucose. The holding chamber was continuously oxygenated and maintained at 35° C. After a recovery period of 30 min, slices were incubated at room temperature for a minimum of 30 min.
For electrophysiological recordings, a single slice was placed in the recording chamber (room temperature) submerged and continuously superfused at a constant rate (2 mL/min) with gassed (95% O2, 5% CO2) aCSF for the reminder of the experiment.
A bipolar tungsten stimulating electrode was placed in the ventrobasal nucleus of the thalamus (the ventrobasal nucleus of the thalamus contains mostly glutamatergic neurons and few GABAergic interneurons) and extracellular field potential was recorded in the somatosensory cortex using a glass microelectrode.
Synaptic transmission Input/Output (I/O) curves were constructed to assess changes in the synaptic transmission, using a range of stimulus intensities from 0 μA to 850 μA with 50 μA intervals. Increasing stimulation intensities results in a linear increase until a maximal plateau in vehicle conditions.
Signals were amplified with an Axopatch 200B amplifier (Molecular Devices, Union City, CA) digitized by a Digidata 1322A interface (Axon Instruments, Molecular Devices, US) and sampled at 10 kHz. Recordings were acquired using Clampex (Molecular Devices) and analyzed with Clampfit (Molecular Devices). Experimenters were blinded to treatment groups for all experiments.
NX218 or vehicle was delivered in the thalamic radiations region by fast focal perfusion. The system consists of syringes containing the respective solutions with tubing lines fusing to a low dead-volume manifold mounted to a micromanipulator. The tip (300-μm diameter) mounted to the manifold was located within a desired distance of less than 1 mm of the target region, with a flow rates of approximately 0.2 mL/min. Tubing lines were controlled by electrical pinch valves which were opened and closed by transistor-transistor logic signals sent out from the DigiData system and parameters set in the perfusion and recording protocol in Clampex 10.3.
Data were analyzed by measuring the slope of individual fEPSPs by linear fitting using Clampfit. The slope of fEPSPs was plotted against different intensities of stimulation (from 0 to 850 μA).

[2] = test system: Schaffer collateral-CA1 synaptic transmission in mouse hippocampal slices after OGD; test: fEPSP recovery after OGD in hippocampal slices, treatment from the end of OGD or during recovery plateau (Example 8); type: cell-based, C57Bl6/J mice; conditions: for averaged normalized f-EPSP slope: NX218 250 μg/mL from the end of OGD, n=10 slices
Procedure: Two extra slices were also be recorded to evaluate a possible curative capacity of NX218 against hypoxia.
Animals: see Example 7. In total, 10 mice were used in this study. An additional mouse was used to obtain two extra slices for preliminary recordings (“test slices)”.
Mice brain slice preparation: see Example 7
Conditions of Example 7 are used, except:
Measurements of evoked field excitatory postsynaptic potential (fEPSP) recovery after OGD were continued for 120 min from TO (OGD initiation). Two “test slices” were also done according to the experimental design described above.
Oxygen-glucose deprivation: see Example 7. In this study, the mean OGD duration was 10.6±1.0 min. Data processing and statistical analysis: see Example 7.

W-S-G-W-S-S-C-S-R-S-C-G [NX218] (WSGWSSCSRSCG; disulfide 7-11 (inferred))
change of fEPSP slope vs vehicle alone (whole I/O curve) ([1]; particularly for stimulation intensities from 150 to 450 μA): significant increase
Normalized fEPSP slope ([1]; stimulation intensity 0 µA): 0.37%
Normalized fEPSP slope ([1]; stimulation intensity 50 µA): 26.12%
Normalized fEPSP slope ([1]; stimulation intensity 100 µA): 54.34%
Normalized fEPSP slope ([1]; stimulation intensity 150 µA): 87.31%
Normalized fEPSP slope ([1]; stimulation intensity 200 µA): 99.95%
Normalized fEPSP slope ([1]; stimulation intensity 250 µA): 107.48%
Normalized fEPSP slope ([1]; stimulation intensity 300 µA): 111.20%
Normalized fEPSP slope ([1]; stimulation intensity 350 µA): 118.22%
Normalized fEPSP slope ([1]; stimulation intensity 400 µA): 118.91%
Normalized fEPSP slope ([1]; stimulation intensity 450 µA): 121.63%
Normalized fEPSP slope ([1]; stimulation intensity 500 µA): 121.16%
Normalized fEPSP slope ([1]; stimulation intensity 550 µA): 122.81%
Normalized fEPSP slope ([1]; stimulation intensity 600 µA): 121.42%
Normalized fEPSP slope ([1]; stimulation intensity 650 µA): 124.24%
Normalized fEPSP slope ([1]; stimulation intensity 700 µA): 124.14%
Normalized fEPSP slope ([1]; stimulation intensity 750 µA): 121.65%
Normalized fEPSP slope ([1]; stimulation intensity 800 µA): 120.97%
Normalized fEPSP slope ([1]; stimulation intensity 850 µA): 121.41%
averaged normalized f-EPSP slope ([2]; 0-30 min after start of OGD, vehicle 28.497): 25.758 % of baseline
averaged normalized f-EPSP slope ([2]; 30-60 min after start of OGD, vehicle 53.456): 52.556 % of baseline
averaged normalized f-EPSP slope ([2]; 60-90 min after start of OGD, vehicle 68.774): 74.616 % of baseline
averaged normalized f-EPSP slope ([2]; 90-120 min after start of OGD, vehicle 77.110): 88.0±1.9 % of baseline and 88.046 % of baseline
shape of the f-EPSP recovery phase following OGD (curative effect) ([2]; NX218 250 μg/mL applied during recovery plateau, T=60 min or T=70 min after OGD initiation, preliminary, n=1 per timepoint): rising further toward baseline
averaged normalized f-EPSP slope ([2]; last 10 min (of 120 min) after start of OGD, vehicle 79.319): 90.3±2.7 % of baseline and 90.340 % of baseline
